# Values of other authors in patent publication US20060281749A1, “Method for treating glaucoma IV B” (priority 2000, published 2006).
# Assays:
# Rhesus monkeys [1] = conditions: drug treated vs. control eye, baseline and pilocarpine-stimulated conditions
# Rhesus monkeys [2] = conditions: accommodative responses to i.m. pilocarpine
smiles,measurement,setting,value
"Cc1sc[n+](CC(=O)c2ccccc2)c1C.[Cl-] [4,5-dimethyl-3-(2-oxoethyl-phenethyl) thiazolium chloride]",improvement in ophthalmologic function (increase in outflow facility),Rhesus monkeys [1],improvement has been illustrated
same,Improvement in accommodation,Rhesus monkeys [2],Improvement in accommodation has been illustrated
